Assay results as given in patent EP0520554A2, “C-21 hydroxylated FK-506 antagonist” (MERCK & CO. INC., priority 1991, dated 1992).

Tested on: mouse T-cells activated with ionomycin + PMA
Assay: T-cell proliferation assay (ionomycin plus PMA induced T-cell stimulation, tritiated thymidine uptake)
Type: cell-based, C57B1/6 mice
Procedure: The principle of this assay is to measure the proliferation of mouse T lymphocytes stimulated with the combination of ionomycin plus PMA. […] Cells were pelleted by centrifugation at 1500 rpm for 8 minutes. Contaminating red cells were removed by treating the pellet with ammonium chloride lysing buffer (GIBCO) for 2 minutes at 4°C. Cold medium was added and cells were again centrifuged at 1500 rpm for 8 minutes. T lymphocytes were then isolated by separation of the cell suspension on nylon wool columns as follows: Nylon wool columns were prepared by packing approximately 4 grams of washed and dried nylon wool into 20 ml plastic syringes. The columns were sterilized by autoclaving at 250°F for 30 minutes. Nylon wool columns were wetted with warm (37°C) culture medium and rinsed with the same medium. Washed spleen cells resuspended in warm medium were slowly applied to the nylon wool. The columns were then incubated in an upright position at 37°C for 1 hour. Non-adherent T lymphocytes were eluted from the columns with warm culture medium and the cell suspensions were spun as above. […] Ionomycin was added at 250 ng/ml and PMA at 10 ng/ml. The cell suspension was immediately distributed into 96 well flat-bottom microculture plates (Costar) at 200 µl/well. […] The proliferation of T lymphocytes was assessed by measurement of tritiated thymidine incorporation. After 44 hours of culturing, the cells were pulse-labelled with 2 µCi/well of tritiated thymidine (NEN, Cambridge, MA). After another 4 hours of incubation, cultures were harvested on glass fiber filters using a multiple sample harvester. Radioactivity of filter discs corresponding to individual wells was measured by standard liquid scintillation counting methods (Betacounter).

`CCC1(O)C=C(C)CC(C)CC(OC)C2OC(O)(C(=O)C(=O)N3CCCCC3C(=O)OC(C(C)=CC3CCC(O)C(OC)C3)C(C)C(O)CC1=O)C(C)CC2OC` (centres unmarked) [21-OH-590, C-21 hydroxylated FR-900520] gave an inhibition at 0.125 µg/mL (Mus musculus, T-cell, sample 125 ng/ml, no FK-506, tritiated thymidine uptake, harvest at 48 hours) of 0%, an inhibition at 0.25 µg/mL (Mus musculus, T-cell, sample 250 ng/ml, no FK-506, tritiated thymidine uptake, harvest at 48 hours) of 0% and an inhibition at 0.5 µg/mL (Mus musculus, T-cell, sample 500 ng/ml, no FK-506, tritiated thymidine uptake, harvest at 48 hours) of 0%. The inhibition at 1 µg/mL (Mus musculus, T-cell, sample 1000 ng/ml, no FK-506, tritiated thymidine uptake, harvest at 48 hours) was 0%, the “% Inhibition + FK-506 (1.2 nM)” value (sample 125 ng/ml in presence of FK-506 1.2 nM, harvest at 48 hours) was 94% and the “% Inhibition + FK-506 (1.2 nM)” value (sample 250 ng/ml in presence of FK-506 1.2 nM, harvest at 48 hours) was 63%.
Molecule `C=CC[C@@H]1/C=C(\C)C[C@H](C)C[C@H](OC)[C@H]2O[C@@](O)(C(=O)C(=O)N3CCCC[C@H]3C(=O)O[C@H](/C(C)=C/[C@@H]3CC[C@@H](O)[C@H](OC)C3)[C@H](C)[C@@H](O)CC1=O)[C@H](C)C[C@@H]2OC` [FK-506] has an inhibition at 0.01 µg/mL (Mus musculus, T-cell) of 99% and an inhibition at 0.0012 µM (Mus musculus, T-cell, read-out: % Inhibition + FK-506 (1.2 nM)) of 97%.
